# Experiments:
# Type in all cases: in vivo
# Septoria nodorum = assay: Test D: wheat glume blotch, preventive spray on wheat seedlings, visual disease rating
# Text: (§1) General protocol for preparing test suspensions for Tests A-H: The test compounds were first dissolved in acetone in an amount equal to 3% of the final volume and then suspended at the desired concentration (in ppm) in acetone and purified water (50/50 mix) containing 250 ppm of the surfactant Trem® 014 (polyhydric alcohol esters). The resulting test suspensions were then used in tests A-H. Spraying a 200 ppm test suspension to the point of run-off on the test plants was the equivalent of a rate of 500 g/ha.
# (§2) The test suspension was sprayed to the point of run-off on wheat seedlings. The following day the seedlings were inoculated with a spore suspension of Septoria nodorum (the causal agent of wheat glume blotch) and incubated in a saturated atmosphere at 20° C. for 48 h, and then moved to a growth chamber at 20° C. for 7 days, after which time disease ratings were visually made.
# (§3) Results for Tests A-H are given in Table A. In the table, a rating of 100 indicates 100% disease control and a rating of 0 indicates no disease control (relative to the controls). A dash (-) indicates no test results. All results are for compounds tested at 200 ppm except where the compound number is followed by “*” which indicates the compound was tested at 40 ppm.
# [1] = tested on: Puccinia recondite f. sp. tritici; assay: Test B: wheat leaf rust, preventive spray on wheat seedlings, visual disease rating
# Text: as §1
# as §2, with “Puccinia recondite f. sp. tritici” for “Septoria nodorum”, “leaf rust)” for “glume blotch)”, “24” for “48”
# as §3
# [2] = tested on: Erysiphe graminis f. sp. tritici; assay: Test A: wheat powdery mildew, preventive spray on wheat seedlings, visual disease rating
# Text: as §1
# The test suspension was sprayed to the point of run-off on wheat seedlings. The following day the seedlings were inoculated with a spore dust of Erysiphe graminis f. sp. tritici (the causal agent of wheat powdery mildew) and incubated in a growth chamber at 20° C. for 8 days, after which time disease ratings were visually made.
# as §3
# Botrytis cinerea = assay: Test F: tomato botrytis, preventive spray on tomato seedlings, visual disease rating
# Text: as §1
# The test suspension was sprayed to the point of run-off on tomato seedlings. The following day the seedlings were inoculated with a spore suspension of Botrytis cinerea (the causal agent of tomato botrytis) and incubated in saturated atmosphere at 20° C. for 48 h, and then moved to a growth chamber at 24° C. for 3 additional days, after which time disease ratings were visually made.
# as §3
# Alternaria solani = assay: Test E: tomato early blight, preventive spray on tomato seedlings, visual disease rating
# Text: as §1
# The test suspension was sprayed to the point of run-off on tomato seedlings. The following day the seedlings were inoculated with a spore suspension of Alternaria solani (the causal agent of tomato early blight) and incubated in a saturated atmosphere at 27° C. for 48 h, and then moved to a growth chamber at 20° C. for 5 days, after which time disease ratings were visually made.
# as §3
# Septoria tritici = assay: Test C: wheat leaf blotch, preventive spray on wheat seedlings, visual disease rating
# Text: as §1
# as §2, with “tritici” for “nodorum”, “leaf” for “glume”, “and” for “and then”, “19 additional” for “7”
# as §3
# [3] = 40 ppm (compound number followed by *)
# [4] = 200 ppm, 100 = 100% disease control, 0 = no control
SMILES,Test D rating (% disease control) (Septoria nodorum; [3]),"Test B rating (% disease control) [1, 3]","Test A rating (% disease control) [2, 3]",Test F rating (% disease control) (Botrytis cinerea; [3]),Test E rating (% disease control) (Alternaria solani; [3]),Test C rating (% disease control) (Septoria tritici; [3]),Test D rating (% disease control) (Septoria nodorum; [4]),"Test B rating (% disease control) [1, 4]","Test A rating (% disease control) [2, 4]",Test F rating (% disease control) (Botrytis cinerea; [4]),Test E rating (% disease control) (Alternaria solani; [4]),Test C rating (% disease control) (Septoria tritici; [4])
COc1cc(OC)cc(-c2c(-c3c(F)cccc3F)cnc(Cl)c2-c2c(F)cccc2F)c1 [Compound 76],0%,28%,0%,0%,0%,0%,–,–,–,–,–,–
CCC(O)c1cnc(C)c(-c2c(F)cc(F)cc2F)c1-c1cc(OC)cc(OC)c1 (centres unmarked) [Compound 99],–,–,–,–,–,–,100%,100%,100%,98%,100%,94%
COc1cc(OC)cc(-c2c(-c3ccc(F)cc3)cnc(C)c2-c2ccccc2F)c1 [Compound 94],–,–,–,–,–,–,0%,54%,21%,98%,0%,91%
COc1cc(OC)cc(-c2c(C(C)CO)cnc(C)c2-c2c(F)cccc2F)c1 (centres unmarked) [Compound 90],0%,74%,0%,71%,98%,90%,–,–,–,–,–,–
C=C(C)c1cnc(C)c(-c2ccc(OC)cc2)c1-c1cc(OC)cc(OC)c1 [Compound 64],–,–,–,–,–,–,90%,99%,85%,99%,100%,95%
COc1cc(OC)c(Cl)c(-c2c(C(C)=O)cnc(C)c2-c2c(F)cc(F)cc2F)c1 [Compound 118],0%,100%,100%,100%,99%,96%,–,–,–,–,–,–
Cc1ncc(-c2ccccc2F)c(-c2cc(OC(F)F)cc(OC(F)F)c2)c1-c1ccc(F)cc1 [Compound 101],–,–,–,–,–,–,0%,89%,82%,96%,0%,96%
Cc1nc(C#N)c(C)c(-c2ccc(Cl)cc2)c1-c1c(F)cccc1F [Compound 143],0%,97%,99%,28%,97%,100%,–,–,–,–,–,–
COc1cc(OC)cc(-c2c(C(C)=O)cnc(C)c2-c2c(F)ccc(F)c2F)c1 [Compound 68],–,–,–,–,–,–,0%,99%,100%,99%,99%,88%
CCC(C)c1cnc(C)c(-c2c(F)cc(F)cc2F)c1-c1cc(OC)cc(OC)c1 (centres unmarked) [Compound 73],0%,100%,100%,99%,91%,94%,–,–,–,–,–,–
COc1cc(OC)cc(-c2c(-c3ccccc3)cnc(C)c2-c2ccccc2F)c1 [Compound 86],0%,98%,96%,92%,31%,93%,–,–,–,–,–,–
COc1cc(OC)cc(-c2c(C(C)C)cnc(C)c2-c2c(F)ccc(F)c2F)c1 [Compound 78],0%,99%,100%,–,96%,92%,–,–,–,–,–,–

# Reference: patent publication US20110092544A1, “FUNGICIDAL PYRIDINES” (E.I. DU PONT DE nemours and company, priority 2008, published 2011)
